Assay results taken from patent US20230339835A1, “2,3,5-TRIMETHYL-6-NONYLCYCLOHEXA-2,5-DIENE-1,4-DIONE FOR SUPPRESSING AND TREATING ALPHA-SYNUCLEINOPATHIES, TAUOPATHIES, AND OTHER DISORDERS” (PTC THERAPEUTICS, INC., priority 2018, published 2023).

Columns and labels:
[1] = test system: AD patient fibroblasts ND34730; experiment: Rescue of AD patient fibroblasts from BSO plus iron-induced oxidative stress, ND34730; assay type: cell-based; conditions: Homo sapiens, Fibroblast
Method: (§1) An initial screen was performed to identify the effectiveness of compounds for the amelioration of PD and AD. Test samples and solvent controls were tested for their ability to rescue PD and AD fibroblasts stressed by addition of L-buthionine-(S,R)-sulfoximine (BSO, a specific inhibitor of GSH synthetase) plus iron (e.g. iron citrate), in a similar manner as that described in Jauslin et al., Hum. Mol. Genet. 11(24):3055 (2002), Jauslin et al., FASEB J. 17:1972-4 (2003), and International Patent Application WO 2004/003565. This specific BSO-mediated cell death was prevented or ameliorated by administration of compounds described herein.
(§2) The AD experiments were performed as follows. PD experiments were performed in a similar manner; certain specific conditions are noted below in Table 1A.
(§3) MEM (a medium enriched in amino acids and vitamins) and Medium 199 (M199) with Earle's Balanced Salts (EBS), without phenol red, were purchased from Invitrogen. Fetal Calf Serum was obtained from Corning. […]
(§4) 100 microliters of Calcein AM (1 microM) in PBS+Ca+Mg was then added to each well. […] After that time fluorescence (excitation/emission wavelengths of 485 nm and 525 nm, respectively) was read on a Spectramax fluorescence reader. Data were analyzed using standard four-parameter curve fit algorithms (XLFit or Prism) to determine the EC50 concentration for each compound.

[2] = test system: AD patient fibroblasts ND41001; experiment: Rescue of AD patient fibroblasts from BSO plus iron-induced oxidative stress, ND41001; assay type: cell-based; conditions: Homo sapiens, Fibroblast
Method: as §1, §2, §3, §4

[3] = test system: AD patient fibroblasts AG11414; experiment: Rescue of AD patient fibroblasts from BSO plus iron-induced oxidative stress, AG11414; assay type: cell-based; conditions: Homo sapiens, Fibroblast
Method: as §1, §2, §3, §4

[4] = test system: C57Bl/6 mice, MPTP-induced model of PD; experiment: Mouse MPTP model of Parkinson's Disease, open field locomotor assay; assay type: in vivo; conditions: 300 mg/kg PO QD Day -2 to Day 7, MPTP 60 mg/kg, Day 7
Description: Animals. Species: Mouse. Strain: C57Bl/6. Source of Animals: Charles River. Age: 6 to 7 weeks. Sex: Male. Randomization: Animals were assigned randomly to treatment groups. Blinding of Study: Experimenters were blinded to the experimental treatments
Housing and Feeding. Acclimation/Conditioning: Not less than three days. Housing: Mice were housed on a 12 hr light/dark cycle (lights on 6:00 AM) No more than 4 mice per cage. Ventilated cage rack system. Diet: Standard rodent chow and water ad libitum.
Design Parameters. Route(s) of administration: PO. Dose Volume: PO: 5 mL/kg. Formulation(s): formulated by Melior according to directions from BioElectron. Vehicle-sesame oil (Spectrum Chemical, NF Catalog #SE130, CAS #8008-74-0). Dose Levels: 300 mg/kg. Dose Frequency: QD starting Day −2 (MPTP=Day 0) and until Day 7. Study duration: 11 days. Pretreatment time (up to 2 hrs): For Day 0 (MPTP Day): 30 min, Pretreatment time for Open Field Assay/Locomotor Activity (OFA/LMA) assay: 1 hr. Number of Groups: 3. Number of animals per group: 10. Total number of animals: 30 (in the study), 42 animals total (To ensure a proper power analysis of at least 10 animals/group, for all groups receiving MPTP, 4 additional animals were added to mitigate study impacts if there were MPTP-induced fatalities).
MPTP Treatment. MPTP was formulated in phosphate buffered saline and administered to mice three times at a dose of 20 mg/kg (1 mg/mL delivered at 20 mL/kg) at two-hour intervals (final dose of MPTP=60 mg/kg).
Locomotor activity. One day prior (baseline) and on Day 7 after MPTP administration (Day (−1) and Day 7), mice were monitored for various aspects of locomotor function using a fully automated open-field apparatus (Med-Associates, Inc). The apparatus consisted of a 10.75″×10.75″ arena enclosed in a sound-attenuated box, equipped with the fan and house light. […]
Data analysis. Data were averaged and are expressed as the average±SEM.
Data were analyzed by one-way ANOVA followed by a post-hoc tests. p-values of less than 0.05 were considered to be statistically significant from control.

[5] = Iron citrate (50 μM) + BSO (50 μM)
[6] = Iron citrate (100 μM) + BSO (25 μM)

CCCCCCCCCC1=C(C)C(=O)C(C)=C(C)C1=O [Compound C9, 2,3,5-trimethyl-6-nonylcyclohexa-2,5-diene-1,4-dione]
EC50 [1, 5]: 15 nM | EC50 [1, 6]: 24 nM | EC50 [2, 5]: 13 nM | EC50 [2, 6]: 17 nM | EC50 ([3]; Iron citrate (100 μM) + BSO (100 μM)): 11 nM | EC50 ([3]; Iron citrate (200 μM) + BSO (100 μM)): 23 nM | open field locomotor assay (vertical time) ([4]; MPTP+Vehicle vs. MPTP+C9 p<0.001): restored vertical time | open field locomotor assay (vertical counts) ([4]; MPTP+Vehicle vs. MPTP+C9 p<0.01): restored vertical counts
